Measured values from patent publication US12091425B2 (AMGEN INC., priority 2016, dated 2024).
Read-outs that look alike come from different tables or passages of the source.

How the values were obtained:
[1] = target: T1, Mcl-1/Bim interaction, recombinant human Mcl-1 (171-327) (Homo sapiens, UniProt Q07820); experiment: Cell free Mcl-1: Bim Affinity Assay (Mcl-1 HTRF); type: binding; conditions: TR-FRET, 0.1 nM Mcl-1 (171-327), 0.05 nM biotin-Bim (51-76)
T1 construct: made in house
Outline: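 TR-FRET competition assay with biotinylated human Bim peptide (residues 51-76); reaction plates incubated overnight before reading. IC50 values came from duplicate data fitted to a four-parameter sigmoidal competition curve.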

[2] = tested on: OPM-2 human multiple myeloma cell line; experiment: Cell Viability Assay (OPM-2 10 FBS); type: cell-based; conditions: Homo sapiens, OPM-2, 16 h, OPM-2 cells, 16 h, CellTiter-Glo
Outline: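 IC50 from 4-parameter logistic fit of CellTiter-Glo luminescence. 3000 cells/well, 10% FBS medium, serial compound dilutions, 16 h, 37 °C/5% CO2; read 25 min post-reagent.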

[3] = from C=CC[C@H](C)NS(=O)(=O)NC(=O)c1ccc2c(c1)N(C[C@@H]1CC[C@H]1[C@@H](O)C=C)C[C@@]1(CCCc3cc(Cl)ccc31)CO2, rcm bond, 16-membered ring, Hoveyda-Grubbs II, AcOH

T1 sequence (Q07820 171-327): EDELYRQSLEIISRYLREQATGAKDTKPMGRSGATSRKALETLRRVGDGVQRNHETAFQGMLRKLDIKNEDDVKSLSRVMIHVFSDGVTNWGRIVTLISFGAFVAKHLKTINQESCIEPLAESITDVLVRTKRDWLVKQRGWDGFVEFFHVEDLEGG

With C[C@@H]1CC=C[C@H](O)[C@]2(C)CC[C@H]2CN2C[C@@]3(CCCc4cc(Cl)ccc43)COc3ccc(cc32)C(=O)NS1(=O)=O the ring closure, yield after HPLC (from C[C@H](C/C=C/[C@H](O)[C@]1(C)CC[C@H]1CN1C[C@@]2(CCCc3cc(Cl)ccc32)COc2ccc(C(=O)O)cc21)S(N)(=O)=O, amide bond, 15-membered ring, EDC/DMAP, DCM, 2.0 mM, 16.0 h) was 7.1%.
For C=CCCC(C#N)S(=O)(=O)NC(=O)c1ccc2c(c1)N(C[C@@H]1CC[C@H]1[C@@H](O)/C=C/CCC)C[C@@]1(CCCc3cc(Cl)ccc31)CO2 (single isomer, unassigned), the ring closure, yield after HPLC (the molecule shown is the open-chain precursor, rcm bond, 16-membered ring, Hoveyda-Grubbs II (20 mol%), reduced pressure, AcOH, 2.9 mM, […]) was 2.58%.
Work on O=C1NS(=O)(=O)[C@H]2CCC[C@@H](C=C[C@H](O)[C@@H]3CC[C@H]3CN3C[C@@]4(CCCc5cc(Cl)ccc54)COc4ccc1cc43)C2 (single isomer, unassigned) yielded a ring closure, yield after HPLC (from NS(=O)(=O)[C@H]1CCC[C@@H](/C=C/[C@H](O)[C@@H]2CC[C@H]2CN2C[C@@]3(CCCc4cc(Cl)ccc43)COc3ccc(C(=O)O)cc32)C1, amide bond, 16-membered ring, EDC/DMAP, DCM, 2.0 mM, 16.0 h) of 4.7%.
CCN1CC/C=C/[C@H](O)[C@@H]2CC[C@H]2CN2C[C@@]3(CCCc4cc(Cl)ccc43)COc3ccc(cc32)C(=O)NS1(=O)=O (single isomer, unassigned) [Example 29] gave a ring closure, yield after HPLC (from C=CCCN(CC)S(=O)(=O)NC(=O)c1ccc2c(c1)N(C[C@@H]1CC[C@H]1[C@@H](O)/C=C/CCC)C[C@@]1(CCCc3cc(Cl)ccc31)CO2, rcm bond, 16-membered ring, Hoveyda-Grubbs II, AcOH, 2.9 mM) of 22.2%, an IC50 [1] of 0.66 nM and an IC50 [2] of 1280 nM.
Compound C[C@H]1C/C=C\[C@H](O)[C@@H]2CC[C@H]2CN2C[C@@]3(CCCc4cc(Cl)ccc43)COc3ccc(cc32)C(=O)NS(=O)(=O)N1 (single isomer, unassigned) [Example 62] has a ring closure, yield after HPLC [3] of 2.1%, an IC50 [1] of 0.266 nM and an IC50 [2] of 362 nM.
With C[C@H]1C/C=C/[C@H](O)[C@@H]2CC[C@H]2CN2C[C@@]3(CCCc4cc(Cl)ccc43)COc3ccc(cc32)C(=O)NS(=O)(=O)N1 [Example 61, (1S,3′R,6′R,7′S,8′E,11′S)-6-chloro-7′-hydroxy-11′-methyl-3,4-dihydro-2H,15′H-spiro[naphthalene-1,22′-[20]oxa[13]thia[1,12,14]triazatetracyclo[14.7.2.0^3,6.0^19,24]pentacosa[8,16,18,24]tetraen]-15′-one 13,13′-dioxide] the ring closure, yield after HPLC [3] was 50.1%, the IC50 [1] was 0.241 nM and the IC50 [2] was 278 nM.
“(1S,3′R,6′R,7′S,8′E)-6-chloro-7′-hydroxy-9′-bromo-3,4-dihydro-2H,15′H-spiro[naphthalene-1,22′-[20]oxa[13]thia[1,14]diazatetracyclo[14.7.2.0^3,6.0^19,24]pentacosa[8,16,18,24]tetraen]-15′-one 13′,13′-dioxide or (1S,3′R,6′R,7′R,8′E)-6-chloro-7′-hydroxy-9′-bromo-3,4-dihydro-2H,15′H-spiro[naphthalene-1,22′-[20]oxa[13]thia[1,14]diazatetracyclo[14.7.2.0^3,6.0^19,24]pentacosa[8,16,18,24]tetraen]-15′-one 13′,13′-dioxide” gave a ring closure, yield after HPLC (amide bond, 16-membered ring, EDC/DMAP/TEA, DCM, 5.0 mM, […]) of 13%.
“(1S,3′R,6′R,7′S,8′E,11′S,12′R)-6-chloro-7′-hydroxy-12′-(2-methoxyethyl)-11′-methyl-3,4-dihydro-2H,15′H-spiro[naphthalene-1,22′-[20]oxa[13]thia[1,14]diazatetracyclo[14.7.2.0^3,6.0^19,24]pentacosa [8,16,18,24]tetraen]-15′-one 13′,13′-dioxide or [...] or (1S,3′R,6′R,7′S,8′E,11′R,12′R)-6-chloro-7′-hydroxy-12′-(2-methoxyethyl)-11′-methyl-3,4-dihydro-2H,15′H-spiro[naphthalene-1,22′-[20]oxa[13]thia[1,14]diazatetracyclo[14.7.2.0^3,6.0^19,24]pentacosa[8,16,18,24]tetraen]-15′-one 13′,13′-dioxide” gave a ring closure, yield after HPLC (rcm bond, 16-membered ring, Hoveyda-Grubbs II, 1,2-dichloroethane, 3.67 mM, 50.0 °C) of 8.2%.
Compound “(1S,3′R,6′R,7′S,8′E,12′R)-12′-(2-(tert-butylsulfonyl)ethyl)-6-chloro-7′-hydroxy-3,4-dihydro-2H,15′H-spiro[naphthalene-1,22′-[20]oxa[13]thia[1,14]diazatetracyclo[14.7.2.0^3,6.0^19,24]pentacosa[8,16,18,24]tetraen]-15′-one 13′,13′-dioxide or (1S,3′R,6′R,7′S,8′E,12′S)-12′-(2-(tert-butylsulfonyl)ethyl)-6-chloro-7′-hydroxy-3,4-dihydro-2H,15′H-spiro[naphthalene-1,22′-[20]oxa[13]thia [1,14]diazatetracyclo[14.7.2.0^3,6.0^19,24]pentacosa[8,16,18,24]tetraen]-15′-one 13′,13′-dioxide” has a ring closure, yield after HPLC (rcm bond, 16-membered ring, Hoveyda-Grubbs II (20 mol%), reduced pressure, AcOH, 2.9 mM, […]) of 6.75%.
With “(1S,3′R,6′R,11′S)-6-chloro-11′-methyl-3,4-dihydro-2H,7′,14′H-spiro[naphthalene-1,21′-[19]oxa[12]thia[1,13]diazatetracyclo[13.7.2.0^3,6.0^18,23]tetracosa [15,17,23]triene]-7′,14′-dione 12′,12′-dioxide” the ring closure, yield after HPLC (rcm bond, 15-membered ring) was 4.8%.
